Measurements from patent publication US6596762B2, “Antioxidant compositions and use for treatment of hepatic steatosis and steatohepatitis” (The Regents of The University of Colorado, priority 2001, dated 2003).

What was measured:
[1] = tested on: lean hepatocytes from lean (Fa/?) Zucker litter-mates; assay: Apoptosis by DAPI fluorescence microscopy of isolated hepatocytes exposed to GCDC; type: cell-based, rat; conditions: lean cells, 100 μM GCDC × 3 hours
Procedure: (§1) Briefly, 8-week-old obese Zucker (fa/fa) rats (Zucker rat model of hepatic steatosis) and lean (Fa/?) litter-mates were sacrificed. Liver blood tests and liver histology were obtained, and hepatocytes isolated by the recirculating collagenase perfusion technique. Initial trypan blue exclusion exceeded 94%. Cells were incubated in suspension with glycochenodeoxycholic acid (GCDC) (0,-1000 μM) in Krebs-Ringer-HEPES for 4 hours. Aliquots of cells were removed hourly for determination of: (1) hydroperoxide generation measured by fluorescence of dichlorofluororescin diacetate (DCF-DA) that was preloaded into hepatocytes; (2) %LDH release as a measure of cell necrosis; and (3) DAPI fluorescence microscopy of fixed cells to quantify apoptosis. Liver histology was quantitated using a grading system.

[2] = tested on: fat-laden hepatocytes from obese Zucker (fa/fa) rats; assay: as above; type: cell-based, rat; conditions: fat-laden cells, 100 μM GCDC × 3 hours
Procedure: as §1

[3] = tested on: fat-laden hepatocytes from obese Zucker (fa/fa) rats; assay: Hydroperoxide generation (DCF-DA fluorescence) in isolated hepatocytes exposed to GCDC; type: cell-based, rat; conditions: fat-laden cells exposed to GCDC, compared with lean cells
Procedure: as §1

[4] = tested on: lean hepatocytes from lean (Fa/?) Zucker litter-mates; assay: Cell necrosis (%LDH release) of isolated hepatocytes exposed to GCDC; type: cell-based, rat; conditions: lean cells, 100 μM GCDC × 3 hours
Procedure: as §1

[5] = tested on: fat-laden hepatocytes from obese Zucker (fa/fa) rats; assay: as above; type: cell-based, rat; conditions: fat-laden cells, 100 μM GCDC × 3 hours
Procedure: as §1

children with NASH = conditions: oral vitamin E 400 to 1200 IU per day, during therapy; cited from earlier work
fat-laden hepatocytes = assay: Protection of fat-laden liver cells exposed to bile acids; type: cell-based, rat; conditions: fat-laden liver cells exposed to relatively low concentrations of bile acids
Text: The antioxidants in this mixture were chosen for the following scientific reasons. […] Briefly, fat-laden hepatocytes were isolated from the Zucker rat model of hepatic steatosis and from lean littermate Zucker rats. […] Without being bound by theory, the present inventor believes that the fatty liver is more prone to hepatocyte necrosis and thus is at risk for severe injury from minor and major insults. […] Studies from the present inventor's laboratory have shown that the effect of vitamin E is probably mediated through reduction of free radical production from mitochondria (Yerushalmi et al., Hepatology 2001; 33:616-26, incorporated herein by reference in its entirety).

[6] = tested on: isolated rat liver mitochondria; assay: Protection of isolated liver mitochondria against toxic bile acids
Text: (§2) Beta carotene and other carotenoids also function as antioxidants in tissues with low oxygen content (such as the liver) and the present inventor has shown beta carotene to have a protective role in hepatic mitochondria that prevents processes that generate oxygen free radicals (unpublished data). […] (Sokol et al., Hepatology 2001;34(2):277A, incorporated herein by reference in its entirety).

[7] = tested on: isolated human liver mitochondria; assay: as above
Text: as §2

CC(CCC(=O)NCC(=O)O)C1CCC2C3C(O)CC4CC(O)CCC4(C)C3CCC12C (centres unmarked) [GCDC, glycochenodeoxycholic acid]
apoptosis [1]: 31%
apoptosis [2]: 8%
generation of hydroperoxides [3]: trend was present towards increased generation of hydroperoxides
necrosis (%LDH release) [4]: 24%
necrosis (%LDH release) [5]: 54%

Cc1c(C)c2c(c(C)c1O)CC[C@@](C)(CCC[C@H](C)CCC[C@H](C)CCCC(C)C)O2 [alpha tocopherol]
serum AST and ALT (children with NASH): reduced
oxidative stress and hepatocyte cell death (fat-laden hepatocytes): will prevent oxidative stress and hepatocyte cell death

CC1=C(/C=C/C(C)=C/C=C/C(C)=C/C=C/C=C(C)/C=C/C=C(C)/C=C/C2=C(C)CCCC2(C)C)C(C)(C)CCC1 [beta carotene]
mitochondrial swelling and injury induced by toxic bile acids [6]: protects the mitochondria from swelling and injury
production of free radicals ([6]; toxic bile acids): markedly diminishes the production of free radicals
mitochondrial swelling and injury induced by toxic bile acids [7]: protects the mitochondria from swelling and injury
production of free radicals ([7]; toxic bile acids): markedly diminishes the production of free radicals
